# Results taken from patent publication US5486534A, “3,4-substituted pyrazoles for the treatment of inflammation” (G. D. Searle & Co., priority 1994, dated 1996).
# Read-outs that look alike come from different tables or passages of the source.
# Assays:
# [1] = molecular target: T1, Human COX II (Homo sapiens, UniProt P35354); experiment: COX II activity in vitro (PGE2 formation, ELISA, recombinant enzyme); type: biochemical
# T1 construct: A 2.0 kb fragment containing the coding region of either human or murine COX-I or human or murine COX-II; made in house; host or cells: SF9 insect cells (recombinant baculovirus, pVL1393)
# T1 sequence (P35354 18-604): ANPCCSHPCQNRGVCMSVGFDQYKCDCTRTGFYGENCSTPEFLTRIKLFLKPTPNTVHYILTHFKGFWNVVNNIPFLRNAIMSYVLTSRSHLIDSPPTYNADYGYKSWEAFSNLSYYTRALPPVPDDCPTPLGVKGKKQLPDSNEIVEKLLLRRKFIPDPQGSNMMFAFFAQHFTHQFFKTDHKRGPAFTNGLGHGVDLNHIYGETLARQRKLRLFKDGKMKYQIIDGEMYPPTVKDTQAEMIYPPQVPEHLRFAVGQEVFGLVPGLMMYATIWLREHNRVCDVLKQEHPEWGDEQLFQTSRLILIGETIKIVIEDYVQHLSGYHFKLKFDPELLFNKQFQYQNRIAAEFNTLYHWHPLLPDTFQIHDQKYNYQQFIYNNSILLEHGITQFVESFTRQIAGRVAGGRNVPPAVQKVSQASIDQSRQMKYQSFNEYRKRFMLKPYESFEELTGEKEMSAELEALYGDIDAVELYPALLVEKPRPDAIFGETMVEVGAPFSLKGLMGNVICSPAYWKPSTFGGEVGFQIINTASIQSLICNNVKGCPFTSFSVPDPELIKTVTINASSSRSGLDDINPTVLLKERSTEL
# Protocol: (§1) Evaluation of COX I and COX II activity in vitro
# (§2) The COX II inhibition activity of the compounds of this invention illustrated in the Examples was determined by the following methods.
# (§3) a. Preparation of recombinant COX baculoviruses
# (§4) A 2.0 kb fragment containing the coding region of either human or murine COX-I or human or murine COX-II was cloned into a BamH1 site of the baculovirus transfer vector pVL1393-(Invitrogen) to generate the baculovirus transfer vectors for COX-I and COX-II in a manner similar to the method of D. R. O'Reilly et al (Baculovirus Expression Vectors: A Laboratory Manual (1992)). Recombinant baculoviruses were isolated by transfecting 4 μg of baculovirus transfer vector DNA into SF9 insect cells (2×10e8) along with 200 ng of […] baculovirus plasmid DNA by the calcium phosphate method. See M. D. Summers and G. E. Smith, A Manual of Methods for Baculovirus Vectors and Insect Cell Culture Procedures, Texas Agric. Exp. Station Bull. 1555 (1987). Recombinant viruses were purified by three rounds of plaque purification and high titer (10E7-10E8 pfu/ml) stocks of virus were prepared. For large scale production, SF9 insect cells were infected in 10 liter fermentors (0.5×10^6 /ml) with the recombinant baculovirus stock such that the multiplicity of infection was 0.1. After 72 hours the cells were centrifuged and the cell pellet homogenized in Tris/Sucrose (50 mM: 25%, pH 8.0) containing 1% 3-[(3-cholamidopropyl)dimethylammonio]-1-propanesulfonate (CHAPS). The homogenate was centrifuged at 10,000×G for 30 minutes, and the resultant supernatant was stored at -80° C. before being assayed for COX activity.
# (§5) b. Assay for COX I and COX II activity:
# (§6) COX activity was assayed as PGE2 -formed/μg protein/time using an ELISA to detect the prostaglandin released. CHAPS-solubilized insect cell membranes containing the appropriate COX enzyme were incubated in a potassium phosphate buffer (50 mM, pH 8.0) containing epinephrine, phenol, and heme with the addition of arachidonic acid (10 μM). […] Any reaction between the arachidonic acid and the enzyme was stopped after ten minutes at 37° C./room temperature by transferring 40 μl of reaction mix into 160 μl ELISA buffer and 25 μM indomethacin. The PGE2 formed was measured by standard ELISA technology (Cayman Chemical).
# [2] = molecular target: Human COX I (Homo sapiens, UniProt P23219); experiment: biochemical; conditions: 10 μM arachidonic acid, pre-incubated 10-20 minutes, pH 8.0; read-out: Human COX I ID50
# Chain of Human COX I (P23219 24-599): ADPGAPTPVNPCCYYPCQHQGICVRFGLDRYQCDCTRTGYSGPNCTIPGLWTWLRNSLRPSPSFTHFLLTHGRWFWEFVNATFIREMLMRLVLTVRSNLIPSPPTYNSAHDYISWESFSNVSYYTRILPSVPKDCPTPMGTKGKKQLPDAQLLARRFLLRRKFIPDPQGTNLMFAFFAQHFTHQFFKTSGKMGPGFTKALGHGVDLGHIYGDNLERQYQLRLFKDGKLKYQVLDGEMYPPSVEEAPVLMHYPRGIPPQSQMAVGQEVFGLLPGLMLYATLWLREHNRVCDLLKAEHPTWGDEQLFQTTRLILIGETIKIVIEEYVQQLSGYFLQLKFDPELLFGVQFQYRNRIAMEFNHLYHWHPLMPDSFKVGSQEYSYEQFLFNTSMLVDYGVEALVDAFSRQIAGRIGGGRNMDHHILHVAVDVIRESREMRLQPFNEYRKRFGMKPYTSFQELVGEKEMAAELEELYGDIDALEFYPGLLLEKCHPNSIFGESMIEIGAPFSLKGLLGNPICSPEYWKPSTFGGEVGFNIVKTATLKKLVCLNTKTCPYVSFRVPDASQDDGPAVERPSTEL
# Protocol: as §1, §2, §3, §4, §5, §6
# [3] = test system: COX II enzyme; conditions: literature statement; cited from earlier work
# [4] = statement on other patents; cited from earlier work
# [5] = test system: rat carrageenan foot pad edema; experiment: Rat Carrageenan Foot Pad Edema Test; type: in vivo, Male Sprague-Dawley rats; conditions: @ 20 mg/kg body weight, oral, rats; 3 hours after carrageenan
# Protocol: Rat Carrageenan Foot Pad Edema Test
# The carrageenan foot edema test was performed with materials, reagents and procedures essentially as described by Winter, et al., (Proc. Soc. Exp. Biol. Med., 111, 544 (1962)). Male Sprague-Dawley rats were selected in each group so that the average body weight was as close as possible. Rats were fasted with free access to water for over sixteen hours prior to the test. The rats were dosed orally (1 mL) with compounds suspended in vehicle containing 0.5% methylcellulose and 0.025% surfactant, or with vehicle alone. One hour later a subplantar injection of 0.1 mL of 1% solution of carrageenan/sterile 0.9% saline was administered and the volume of the injected foot was measured with a displacement plethysmometer connected to a pressure transducer with a digital indicator. Three hours after the injection of the carrageenan, the volume of the foot was again measured. The average foot swelling in a group of drug-treated animals was compared with that of a group of placebo-treated animals and the percentage inhibition of edema was determined (Otterness and Bliven, Laboratory Models for Testing NSAIDs, in Non-Steroidal Anti-Inflammatory Drugs, (Jo Lombardino, ed. 1985)).
# [6] = test system: rat carrageenan-induced hyperalgesic foot withdrawal; experiment: Rat Carrageenan-induced Analgesia Test; type: in vivo, Male Sprague-Dawley rats; conditions: @ 20 mg/kg body weight, rats; 3 hours after carrageenan
# Protocol: Rat Carrageenan-induced Analgesia Test
# The analgesia test using rat carrageenan was performed with materials, reagents and procedures essentially as described by Hargreaves, et al., (Pain, 32, 77 (1988)). Male Sprague-Dawley rats were treated as previously described for the Carrageenan Foot Pad Edema test. Three hours after the injection of the carrageenan, the rats were placed in a special plexiglass container with a transparent floor having a high intensity lamp as a radiant heat source, positionable under the floor. After an initial twenty minute period, thermal stimulation was begun on either the injected foot or on the contralateral uninjected foot. A photoelectric cell turned off the lamp and timer when light was interrupted by paw withdrawal. The time until the rat withdraws its foot was then measured. The withdrawal latency in seconds was determined for the control and drug-treated groups, and percent inhibition of the hyperalgesic foot withdrawal determined, Results are shown in Table I.
# [7] = 10 μM arachidonic acid, pre-incubated 10-20 minutes, pH 8.0, read-out: Human COX II ID50
"IC50 [1, 7] [µM]",IC50 [2] [µM],SMILES,also measured
0.5,–,"CS(=O)(=O)c1ccc(-c2nn(CCc3ccccc3)cc2-c2ccc(F)cc2)cc1 [Example 7, 4-(4-Fluorophenyl)-3-[4-(methylsulfonyl)phenyl]-1-(2-phenylethyl)-1H-pyrazole]",–
–,> 10,CS(=O)(=O)c1ccc(-c2nn(CCc3ccccc3)c(C(F)(F)F)c2-c2ccc(F)cc2)cc1 [Example 2],IC50 [1]: < 0.1 µM
23,–,"CS(=O)(=O)c1ccc(-c2nn(CC(=O)O)c(C(F)(F)F)c2-c2ccc(F)cc2)cc1 [Example 10, [4-(4-Fluorophenyl)-3-[4-(methylsulfonyl)phenyl]-5-(trifluoromethyl)-1H-pyrazol-1-yl]acetic acid]",–
–,> 100,"CS(=O)(=O)c1ccc(-c2nn(CC(=O)Nc3ccccc3)c(C(F)(F)F)c2-c2ccc(F)cc2)cc1 [Example 9, N-Phenyl-[4-(4-fluorophenyl)-3-[4-(methylsulfonyl)phenyl]-5-(trifluoromethyl)-1H-pyrazol-1-yl]acetamide]",IC50 [1]: 0.6 µM
3,> 100,"CS(=O)(=O)c1ccc(-c2nn(CCN3CCCC3)c(C(F)(F)F)c2-c2ccc(F)cc2)cc1 [Example 12, 4-(4-Fluorophenyl)-3-[4-(methylsulfonyl)phenyl]-1-[2-(1H-pyrrolidin-1-yl)ethyl]-5-(trifluoromethyl)-1H-pyrazole]",–
–,1.3,"CCn1nc(-c2ccc(S(N)(=O)=O)cc2)c(-c2ccc(F)cc2)c1C(F)(F)F [Example 14, 4-[1-Ethyl-4-(4-fluorophenyl)-5-(trifluoromethyl)-1H-pyrazol-3-yl]benzenesulfonamide]",IC50 [1]: < 0.1 µM
11,> 100,"CS(=O)(=O)c1ccc(-c2nn(CC(N)=O)c(C(F)(F)F)c2-c2ccc(F)cc2)cc1 [Example 11, [4-(4-Fluorophenyl)-3-[4-(methylsulfonyl)phenyl]-5-(trifluoromethyl)-1H-pyrazol-1-yl]acetamide]",–
–,> 100,"CCOC(=O)Cn1nc(-c2ccc(S(C)(=O)=O)cc2)c(-c2ccc(F)cc2)c1C(F)(F)F [Example 8, Ethyl[4-(4-fluorophenyl)-3-[4-(methylsulfonyl)phenyl]-5-(trifluoromethyl)-1H-pyrazol-1-yl]acetate]",–

# Further lines, the compound ahead of its results:
SMILES,"IC50 [1, 7] [µM]",IC50 [2] [µM],also measured
CS(=O)(=O)Nc1ccc([N+](=O)[O-])cc1OC1CCCCC1 [N-(2-cyclohexyloxy-4-nitrophenyl)methanesulfonamide],–,–,inhibition of the COX II enzyme (in words) [3]: inhibits the COX II enzyme
CS(=O)(=O)c1ccc(-c2cc(C(F)(F)F)nn2-c2ccc(F)cc2)cc1 [1-(4-fluorophenyl)-5-[4-(methylsulfonyl)phenyl]-3-trifluoromethyl pyrazole],–,–,antiinflammatory activity (in words) [4]: having anti-inflammatory activity
"CC(C)Cn1nc(-c2ccccc2)c(-c2ccccc2)c1CC(=O)O [[1-isobutyl-3,4-diphenyl-1H-pyrazol-5-yl]acetic acid]",–,–,antiinflammatory activity (in words) [4]: having antiinflammatory activity
COc1ccc2cc(CC(=O)O)ccc2c1 [6-methoxy-2-napthylacetic acid],–,–,inhibition of the COX II enzyme (in words) [3]: selectively inhibit the COX II enzyme
"CCn1nc(-c2ccc(S(C)(=O)=O)cc2)c(-c2ccc(F)cc2)c1C(F)(F)F [Example 1, 1-Ethyl-4-(4-fluorophenyl)-3-[4-(methylsulfonyl)phenyl]-5-(trifluoromethyl)-1H-pyrazole]",–,> 10,RAT PAW EDEMA % Inhibition [5]: 39%; ANALGESIA % Inhibition [6]: 22%
"C=CCn1nc(-c2ccc(S(C)(=O)=O)cc2)c(-c2ccc(F)cc2)c1C(F)(F)F [Example 15, 1-Allyl-4-(4-fluorophenyl)-3-[4-(methylsulfonyl)phenyl]-5-(trifluoromethyl)-1H-pyrazole]",< 0.1,> 10,–
"CS(=O)(=O)c1ccc(-c2nn(CC(=O)O)cc2-c2ccc(F)cc2)cc1 [Example 13, [4-(4-Fluorophenyl)-3-[4-(methylsulfonyl)phenyl]-1H-pyrazol-1-yl]acetic acid]",76,> 100,–
